Measurements as given in patent US10618886B1, “Compounds as neuronal histamine receptor-3 antagonists and uses thereof” (XW LABORATORIES INC., priority 2018, dated 2020).

Assays:
[1] = target: T1, histamine H3 receptor (hH3R) (Homo sapiens (Human), UniProt Q9Y5N1); experiment: [35S]-GTPγS binding assay, antagonist mode, HEK293/Ga15/hH3R membranes; format: biochemical; conditions: agonist R-alpha-methylhistamine 1 μM, 10 points, 3-fold dilution from 1 μM
Procedure: (§1) The histamine H3 receptors mediate the histamine signals in CNS and peripheral nervous system. Histamine H3 receptors couple directly to a Gi/Go, resulting in subsequent GTPγδ binding. Although GTPγδ binding assays are carried out using membrane preparations in the similar way as radioligand binding assays, these are functional assays and can be used to differentiate agonist, antagonist, and inverse agonist activities. Such assays are carried out using [^35S]-guanosine-5′-O-(3-thio) triphosphate which provides a radioactive ligand with high affinity for G-protein a subunits that is highly resistant to the inherent GTPase activity of a subunits, such that it remains bound for sufficient periods of time to allow counting of radioactivity. The GTPγδ binding assay was performed using HEK293/Ga15/hH3R cell line with high histamine H3 receptors expression to determine H3 receptor GTPγδ binding affinity of representative compounds.
(§2) 1. [^35S]-GTPγδ binding assay for determining antagonist and inverse agonist pharmacological parameters of histamine H3 receptor ligands:
(§3) Experimental procedure: 1) Membrane preparation for HEK293/Ga15/hH3R; 2) Standard binding assay. Briefly, for membrane […], HEK293/Ga15/hH3R cells were grown to confluence, harvested and the cell pellets were suspended in TEL buffer (50 mM Tris-HCl buffer, 1 mM EGTA, 0.1 mM PMSF). Homogenate and centrifuge at 1,000 g for 10 min. Centrifuge the supernatant at 46,000 g for 30 min. Suspend the membrane pellet in 50 mM Tris with 0.32 M sucrose, pH 7.0. Aliquot at 1 mg protein/mL. Keep frozen and store at −80° C. until use. All compounds were prepared by dissolving in DMSO to make 10 mM stock. The 10 mM stock was used as top concentration […] to carry out 10-points, 3-fold dilution scheme using DMSO in a 96-well plate to make the compound dose plate. H3R GTPγδ binding assay was performed as followings: thaw the membrane at 37° C., chill on ice, add GDP and the membrane to assay buffer (50 mM Tris-HCl, 100 mM NaCl, 5 mM MgCl2, pH 7.4, and 0.2%, BSA). Stay on ice for 20 min. […] Add 20 μL [^35S]-GTPγδ (final 200 pM) and incubate at room temperature for 60 min. For antagonist mode: Add 20 μL agonist (R-alpha-methylhistamine, final concentration 1 μM), 20 μL testing compound (final top concentration 1 μM, 3-fold dilution, 10 points), 20 μL [^35S]-GTPγδ (final 200 pM), 140 μL membrane solution (total 200 μL, GDP 10μM, membrane protein 20 μg/well) to the assay plate. Incubate at room temperature for 60 min. Filter the assay plate on GF/C (non-PEI coated) plate to stop the assay. Dry GF/C plate for 1 h. Add 50 μL scintillation fluid and count on the MicroBeta.
(§4) Data Analysis: The CPM values were calculated into % of inhibition with the following formula:
For antagonist mode: % of inhibition=(R-alpha-methyl-histamine control CPM−Compound CPM)/(R-alpha-methyl-histamine control CPM−DMSO control CPM)×100.
(§5) IC50s were calculated using Prism5 with log(inhibitor) vs. response equation.

[2] = target: T1, histamine H3 receptor (hH3R); experiment: [35S]-GTPγS binding assay, inverse agonist mode, HEK293/Ga15/hH3R membranes; format: biochemical; conditions: no agonist, 10 points, 3-fold dilution from 1 μM
Procedure: as §1, §2, §3, §4
For inverse agonist mode: % of inhibition=(DMSO control CPM−Compound CPM)/(DMSO control CPM−GTP control CPM)×100.
as §5

T1 sequence (Q9Y5N1 whole entry): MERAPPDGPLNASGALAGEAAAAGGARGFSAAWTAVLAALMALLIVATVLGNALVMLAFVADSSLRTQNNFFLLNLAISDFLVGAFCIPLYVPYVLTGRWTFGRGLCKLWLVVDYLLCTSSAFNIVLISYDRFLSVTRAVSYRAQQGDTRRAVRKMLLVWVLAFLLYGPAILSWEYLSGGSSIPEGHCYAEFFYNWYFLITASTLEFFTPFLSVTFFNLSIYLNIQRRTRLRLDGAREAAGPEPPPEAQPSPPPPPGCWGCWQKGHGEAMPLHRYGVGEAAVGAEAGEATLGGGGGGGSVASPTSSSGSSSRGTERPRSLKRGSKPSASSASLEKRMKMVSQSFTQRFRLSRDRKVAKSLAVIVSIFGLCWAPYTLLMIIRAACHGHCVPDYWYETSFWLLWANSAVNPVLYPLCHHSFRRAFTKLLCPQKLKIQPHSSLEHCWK

| Structure (SMILES) | IC50 [1] | IC50 [2] |
| --- | --- | --- |
| COc1cc(OC2CCN(C(=O)C3CCOCC3)CC2)ccc1-n1c(C)nc2ccc(S(F)(F)(F)(F)F)cc2c1=O [XXII, 3-(2-methoxy-4-((1-(tetrahydro-2H-pyran-4-carbonyl)piperidin-4-yl)oxy)phenyl)-2-methyl-6-(pentafluorosulfanyl)quinazolin-4(3H)-one] | 242 nM | 229 nM |
| Cc1nc2ccc(S(F)(F)(F)(F)F)cc2c(=O)n1-c1ccc(OC2CCN(C(=O)C3CCCCC3)CC2)cc1 [XIX, 3-(4-((1-(cyclohexanecarbonyl)piperidin-4-yl)oxy)phenyl)-2-methyl-6-(pentafluorosulfanyl)quinazolin-4(3H)-one] | > 1000 nM | > 1000 nM |
| Cc1nc2ccc(S(F)(F)(F)(F)F)cc2c(=O)n1-c1ccc(OC2CCN(C(=O)C3CCN(C)CC3)CC2)cc1 [XX, 2-methyl-3-(4-((1-(1-methylpiperidine-4-carbonyl)piperidin-4-yl)oxy)phenyl)-6-(pentafluorosulfanyl)quinazolin-4(3H)-one] | 814 nM | 50.5 nM |
| Cc1nc2ccc(S(F)(F)(F)(F)F)cc2c(=O)n1-c1ccc(OC2CCN(C(=O)C3CCOCC3)CC2)cc1 [XXI, 2-methyl-3-(4-((1-(tetrahydro-2H-pyran-4-carbonyl)piperidin-4-yl)oxy)phenyl)-6-(pentafluorosulfanyl)quinazolin-4(3H)-one] | > 1000 nM | 286 nM |
| Cc1nc2ccc(S(F)(F)(F)(F)F)cc2c(=O)n1-c1ccc(OC2CCN(C3CCCC3)CC2)cc1 [XVI] | 116 nM | 175 nM |
| Cc1nc2ccc(S(F)(F)(F)(F)F)cc2c(=O)n1-c1ccc(OCCCN2CCC(C)C2)cc1 (centres unmarked) [VII, 2-methyl-3-(4-(3-(3-methylpyrrolidin-1-yl)propoxy)phenyl)-6-(pentafluorosulfanyl)quinazolin-4(3H)-one] | 3.44 nM | 10.5 nM |
| COc1cc(OCCCN2CCCC2)ccc1-n1c(C)nc2ccc(S(F)(F)(F)(F)F)cc2c1=O [VI, 3-(2-methoxy-4-(3-(pyrrolidin-1-yl)propoxy)phenyl)-2-methyl-6-(pentafluorosulfanyl)quinazolin-4(3H)-one] | 5.36 nM | 5.5 nM |
